The text below walks through data of a melting point compilation (Tetko et al.; mined from patent text by program, amines drawn as free bases though some values may be those of a salt).

Take `CC(C)(C)c1cc(C2=C(c3cc(C(C)(C)C)c(O)c(C(C)(C)C)c3)C2=C(C#N)C#N)cc(C(C)(C)C)c1O`: the melting point (in general, the temperature, or range, at which the solid turns liquid) was 280 to 281 °C. In the case of `CC(C)(C)C(NC(=O)Cc1ccc(C#N)cc1)NC(=NC#N)Nc1cccc2ncccc12` (configuration not stated), the melting point is 194 to 196 °C. Under `CC(C)N(Cc1ccc2cc(NC(=O)c3ccc(-c4ccc(Cl)cc4)nc3)ccc2n1)C(C)C` stands 201 to 203 °C. Under `CCCCC(=O)OC(C)OC(=O)NC1(C(=O)O)CC1` (configuration not stated) stands 148 to 151 °C; under `O=C1CCCN1CCCNc1cc(C(c2cc(F)ccc2F)S(=O)(=O)c2ccc(Cl)cc2)c(Cl)cn1` (configuration not stated), 78 to 80 °C.

`Oc1ccc(-c2nc3cc(O)c(Cl)cc3o2)cc1F` registered a melting point of 197 to 199 °C. Under `COc1cc(C(=O)Cc2ccc(O)cc2)c(O)cc1O` stands 157 to 159 °C; under `Brc1ccc(N(Cc2ccccc2)Cc2ccccc2)cc1`, 123 °C; under `CNc1sc2c(c1C(=O)c1ccccc1)CCCC2`, 128 to 130 °C. The result for `CN(CCc1ccccc1)c1nc(=O)c2cccnc2s1` reads 115 to 116 °C. Under `O=C1Nc2ccccc2Nc2nc(-c3ccccc3)ncc21` stands 260 to 261 °C. The compound `CCCn1c(=O)c2c(NC)n[nH]c2n(CCc2ccccc2)c1=O` yielded a melting point of 256 to 258 °C.

Compound `CC(=O)NC1C(NC(=O)NCCCl)OC(CO)C(O)C1O` (configuration not stated) had a melting point of 181 to 182 °C. Consider `C=CCOc1ccccc1N(CC1CO1)S(C)(=O)=O` (configuration not stated), for which the melting point turned out to be 78 °C. Under `Cc1ccc(CCC(C)NCC(O)c2cc3ccccc3o2)cc1` (configuration not stated) stands 83 to 84 °C; under `O=C1Nc2cccnc2N(C(=O)NCCN2CCCCC2CN2CCCCCC2)c2ccccc21` (configuration not stated), 156 to 158 °C. The compound `CCOC(=O)NCCN1CCC(NC(=O)c2cc(Cl)c(N)c3c2OCCC3)CC1` yielded a melting point of 160 °C. `CCCCCCCOc1ccc(CCC(CO)(CCC)NC(=O)c2cc([N+](=O)[O-])cc([N+](=O)[O-])c2)cc1` (single isomer, unassigned; (-)): the melting point was 115 to 116 °C. `Cn1cc(C=CC(=O)NCN2CCCC2)c([N+](=O)[O-])n1` registered a melting point of 180 to 183 °C.

Compound `CC(=O)N[C@@H](Cc1ccc2ccccc2c1)C(=O)OCc1cc(C)cc(C)c1` had a melting point of 96 to 97 °C.

Turning to `COC(=O)Cc1cc([N+](=O)[O-])ccc1OC`, the melting point is 92 °C.

`CCOC(=O)/C=C/c1ccc(OCCCOC)cc1Oc1ncc(C(F)(F)F)cc1Cl`: the melting point was in the range of 86.4 to 86.5 °C. The result for `CCc1c(C(=O)OC)ncc2[nH]c3cc(OC)c(OC)cc3c12` reads 207 to 209 °C; that for `CC(C)OC(=O)c1cc(N)ccc1Cl`, 50.5 to 52 °C; that for `CCN1c2ncccc2C(=O)Nc2c(C)cc(N3CCCCC3CCO)nc21` (configuration not stated), 234 to 237 °C. The result for `Oc1cccc(-c2noc3ccsc23)c1` reads 114 to 116 °C; that for `O=S(=O)(O)NCCC(F)(F)F`, more than 250 °C. The result for `CC1CCCC(NC(CCc2ccccc2)C(=O)O)C(=O)N1CC(=O)O` (configuration not stated) reads 215 to 217 °C; that for `COc1ccc(-n2nc(Sc3ccc(S(C)=O)cc3)c(C)c(C#N)c2=O)cc1` (configuration not stated), 176 to 178 °C; that for `COc1ccc2c(c1OC)C(=O)c1ccccc1-2`, 110 to 111 °C. `Cc1ccnc(-c2ccc(Br)cc2)c1` gave a melting point of 126 °C.

Compound `CCOC(=O)COc1cc(OCc2ccccc2)ccc1C#N` showed a melting point of 84 °C. Under `CCOC(=O)CCc1cc(O)ccc1-c1ccc(-c2cccc(C)c2)c(CO)c1` stands 57 to 59 °C; under `COC(=O)C1CCCN1C(=O)Cc1c(C)cc(C)cc1C` (configuration not stated), 74 °C.

As to `CCCCNC(=O)OCCCc1ccc(OCCOC)cc1Oc1ncc(C(F)(F)F)cc1Cl`, the melting point lay within 91.7 to 91.8 °C. The result for `CCc1cc(-c2[nH]c3ccc(OC)cc3c2C)cc(CC)c1O` reads 122 to 124 °C. `CCCNC(=O)Nc1ccccc1C(=O)OCC` gave a melting point of 98 to 99 °C. Under `COCCOc1ccc(CCCOc2cc(CCC(=O)O)n(-c3ccccc3)n2)c(Oc2ncc(C(F)(F)F)cc2Cl)c1` stands 128 to 129 °C; under `CCOC(=O)C1=CC(=O)C2(C(=O)c3ccc(Cl)cc3)OC2O1` (configuration not stated), 100 °C; under `Cc1cc(SCCCSc2nnnn2C)nc(N)n1`, 119 to 120 °C.

`Nc1ccccc1CCN1CCN(c2nsc3ccccc23)CC1`: the melting point came out at 149 °C. For the compound `CCN(CC)C(=O)Cc1c(N)n[nH]c1-c1ccc(OC)cc1`, the melting point lay in the range of 154 to 158 °C. Under `Cc1nn(C)c2c1N(C(=O)CN1CCCCC1)c1ccccc1NC2=O` stands 156 to 158 °C; under `CC(C)Cn1nnc2cc3c(=O)n(C(C)Cn4ncnn4)nnc3cc2c1=O` (configuration not stated), 132 to 134 °C; under `O=C(COCc1csc(-c2ccc(F)cc2)n1)c1ccccc1`, 104 to 106 °C.

Consider `O=C(OCc1ccccc1)N1CCc2ccccc2C12CCC(C(=O)O)(C(=O)O)CC2`, for which the melting point lay in the range of 199 to 200 °C.

`COc1cc(Br)ccc1OCc1ccc2ccccc2c1` had a melting point of 108 °C. Under `Cc1cnc(CCCC#N)c(O)c1` stands 132 °C.

As to `COc1ccc(S(=O)(=O)N2C(=O)C(c3ccccc3OC)(N3Cc4ccccc4C3C(=O)N(C)C)c3cc(Cl)ccc32)c(OC)c1` (configuration not stated), the melting point was 168 °C. Under `COc1ccc(-c2c(C=O)ccc3cc(OC)ccc23)cc1` stands 99 to 101 °C. Under `NC(=S)N1CCSC1c1ccccc1OCCN1CCN(c2cccc(F)c2)CC1` (configuration not stated) stands 136 to 137 °C. Under `COC(=O)c1ccc(C(=O)N[C@@H](CC(C)C)C(=O)N[C@@H](C(C)C)[C@@H](O)c2c(-c3ccccc3)c2=O)cc1` stands 125 to 128 °C. Turning to `CC(C)(C)c1cccc(S(=O)(=O)n2c(Cc3ccc(C(=O)O)c(F)c3)cc3cc(C(F)(F)F)ccc32)c1`, the melting point came to 144 °C. Regarding `CCOC(=O)c1cccc(-c2coc3cc(O)c(O)cc3c2=O)c1`, the melting point was in the range of 217 to 218 °C. The result for `COc1cc2c(Cl)c(C#N)cnc2cc1OCc1ccccc1` reads 282 to 284 °C. The result for `COC(=O)c1cccc(CCC(=O)O)c1` reads 81 °C; that for `Cc1ccccc1C=Nc1c2c(nc3ccccc13)CCCC2`, 160 to 162 °C. `CCOC(=O)CCCCOc1ccc(N2CCN(c3ccncc3)CC2)cc1` came in with a melting point of 79 to 82 °C.

The compound `CCOC(=O)c1n[nH]c2c(=S)[nH]c3cc(Cl)ccc3c(=O)c12` displayed a melting point of 248 to 253 °C. The result for `CCCCCOc1ccc(C=O)cc1O` reads 55 to 56 °C; that for `CC1(C)CC2(CC(C)(C)N1O)NC(=O)N(CC1CO1)C2=O` (configuration not stated), 154 °C. The result for `CN1CCN(c2sc(-c3nc4ccccc4c(=O)n3-c3ccc(Cl)cc3)cc2-c2ccc(S(C)(=O)=O)cc2)CC1` reads 232 to 233 °C; that for `CCOc1ccc(-c2nc(-c3cc(C(=O)O)c(O)cc3O)cs2)cc1OCC`, 233 to 234 °C. Turning to `CCCNC(=O)c1cccc(C2(c3ccc(OC(F)F)cc3)N=C(N)N(C)C2=O)c1` (configuration not stated), the melting point was in the range of 93 to 96 °C. The result for `O=C(N[C@H]1CC[C@H](CCN2CCC(c3cccc4c3CCO4)CC2)CC1)C(F)(F)F` reads 173 °C. Under `Cc1cc(C)c2c(c1)SCC2c1ccc(C(C)C)cc1` (configuration not stated) stands 74 to 75 °C. The result for `Cc1nc(-c2ccc(C(F)(F)F)cc2)[nH]c1CN1CCN(C(c2ccccc2)c2ccccc2)CC1` reads 244 °C; that for `O=C(Nc1ccc(OCCN2CCOCC2)c2ccccc12)c1cc(F)cc(N2CCOCC2)c1`, 123 to 124 °C. `CCCCc1nc(Cl)c(CO)n1Cc1ccc(N)cc1` yielded a melting point of 101 to 103 °C. The result for `COC(=O)c1cscc1NC(=O)COc1ccc(I)cc1` reads 135 to 137 °C. Under `Clc1cc(CCc2ccccn2)c2oc(-c3cnc[nH]3)nc2c1` stands 202 to 209 °C; under `Cc1c(O)c(=O)ccn1CC(=O)O`, more than 230 °C. Under `CCCN(CCC)[C@H]1Cc2ccc(OCC)cc2[C@@H]1O` stands 74 to 75 °C; under `Cc1cc(C(=O)N(C2CCCCC2)C2CCCC2)ccc1Cn1cnc2cccnc21`, 181 to 182 °C. Compound `O=C(Nc1ncc(C(F)(F)F)o1)C1c2ccccc2Oc2c(F)cccc21` (racemic) had a melting point of 228 °C.

`CCCCOc1ccc2c(c1)CCC(C(=O)OC)C2O` (configuration not stated) had a melting point of 81 to 83 °C. The result for `CS(=O)c1cc(-c2nc(=O)c3ccccc3s2)ccn1` (configuration not stated) reads 172 to 174 °C.

For the compound `CCCCCCCCCCCCc1c2c(=O)c3cc(-c4cccs4)ccc3c2c(CCCCCCCCCCCC)c2c(=O)c3cc(-c4cccs4)ccc3c12`, the melting point is 205 to 206 °C. The result for `CC(C)c1cccc(-c2c(-c3ccc4nn(C)cc4c3)nsc2NC(=O)[C@@H]2C[C@H]2C)n1` reads 142 to 144 °C; that for `CCOC(=O)c1cc2ccc([Si](C)(C)C)cc2[nH]1`, 127 to 129 °C. The result for `CCC(O)(c1ccc(OCCN2CCOCC2)cc1)c1cccc(C(F)(F)F)c1` (configuration not stated) reads 73 to 74 °C.

`C#CCOC(=O)C=C(C)C=CC=C(C)C=Cc1c(C)cc(OC)c(C)c1C`: the melting point lay within 94 to 95 °C.

As to `COC(=O)C(=O)NC(=O)CC(F)=C(F)F`, the melting point lay in the range of 33 to 34 °C. Consider `CC1=C(C(=O)OCCC#N)C(c2cccc([N+](=O)[O-])c2)C(C(=O)OCCCN2CCC(c3ccccc3)(c3ccccc3)CC2)=C(C)N1` (configuration not stated), for which the melting point is 158 to 160 °C. The result for `O=C(NCc1ccc(Cl)cc1)c1cn2c3c(cc(CN4CCOCC4)cc3c1=O)OC(CN1CCCCC1)C2` (configuration not stated) reads 213 to 215 °C. The result for `Cc1cc(NC(=O)c2c(Cl)cccc2Cl)c2nccc(Cl)c2c1` reads 203 to 205 °C; that for `Oc1ccc(-c2ncc3ncc(-c4cccnc4)cc3n2)cc1`, more than 268 °C.
